According to US10774082B2, “Quinazoline compound” (Astellas Pharma Inc., priority 2017, dated 2020):
Where two headings read alike, the source gives them in different places.

How the values were obtained:
NCI-H1373 cells = assay: Anchorage-independent cell proliferation inhibitory action, NCI-H1373 spheroid three-dimensional culture; assay type: cell-based, Human; conditions: Homo sapiens, NCI-H1373, 144 h, read-out: IC50 (anchorage-independent cell proliferation inhibition)
Procedure: Evaluation of Anchorage-Independent Cell Proliferation Inhibitory Action with Respect to Human KRAS G12C Mutation Positive Non-Small Cell Lung Cancer Strain NCI-H1373
An anchorage-independent cell proliferation inhibitory action by the test compound was evaluated by a spheroid three-dimensional culture.
NCI-H1373 cells were seeded in cell low adsorption U bottom 384 well plates (Prime Surface: Sumitomo Bakelite Co., Ltd.) at 36 μL/well each so as to be 5×10^2 cell per well. The cell culture was performed under the same conditions as Test example 2.
The next day, the test compounds (six points in a range of final concentration 1,000 nM to 0.3 nM) and DMSO which is a solvent of the test compound as a negative control were diluted 100-fold with fresh medium, 4 μL each was added to each well. After culturing at 37° C. in the presence of 5% CO2 for six days, 20 μL of CellTiter Glo or to CellTiter Glo 2.0 (Promega Corporation) was added to each well. After stirring for one hour at room temperature using a plate mixer (FINEPCR), an emission signal was measured with ARVO X3 (PerkinElmer Co., Ltd.).
When a signal value in a DMSO treatment was set as 0% inhibition, and a signal value in cell-free medium only was set as 100% inhibition, a value of 50% inhibition (IC50) was calculated through Sigmoid-Emax model nonlinear regression analysis.

[1] = tested on: ERK phosphorylation (Thr 202/Tyr 204) in NCI-H1373 cells; assay: ERK phosphorylation inhibitory action in NCI-H1373 (Cell ELISA); assay type: cell-based, Human; conditions: Homo sapiens, NCI-H1373, 2 h, read-out: IC50 (ERK phosphorylation inhibition)
Procedure: Evaluation of ERK Phosphorylation Inhibitory Action with Respect to Human KRAS G12C Mutation Positive Non-Small Cell Lung Cancer Strain NCI-H1373
The ERK phosphorylation inhibitory action by the test compound was evaluated by measuring phosphorylation of 202th threonine (Thr 202) and 204th tyrosine (Tyr 204) of ERK on the downstream of the KRAS signal by Cell ELISA.
NCI-H1373 cells (ATCC, CRL-5866) were seeded in 384 well plates (Greiner bio-one) at 36 μL/well each so as to be 2×10^4 cell per well. Cell culture was performed under the conditions of temperature of 37° C. in the presence of 5% CO2 by using RPMI 1640 medium (Sigma-Aldrich Co. LLC) containing 10% fetal bovine serum (GE Life Sciences).
The next day, the test compounds (six points in a range of final concentration 1,000 nM to 0.3 nM), final concentration 1 μM of Trametinib (GlaxoSmithKline Inc.; MEK inhibitor) as a positive control, and DMSO which is a solvent of the test compound as a negative control were diluted 100-fold with fresh medium, 4 μL each was added to each well, and then cultured for 2 hours. Immediately after culturing, 30 μL of 30% glyoxal solution (Wako: 40% glyoxal diluted with Phosphate Buffered Saline (PBS; Wako)) was added to each well, and the cells were left to stand at room temperature for one hour to be fixed. Thereafter, the supernatant was removed by centrifuging the plate (110×g for 7 seconds, unless otherwise stated below under the same conditions), and 20 μL of PBS containing 0.1% Triton X-100 (Amersham Biosciences Corp.) was added to each well. After being left to stand at room temperature for 10 minutes, the supernatant was removed by centrifugation, and the same operation was repeated. Next, 20 μL of PBS containing 0.5% SDS (Invitrogen) was added to each well, and the mixture was left to stand at room temperature for 30 minutes, and then centrifuged to remove the supernatant. Subsequently, 20 μL of a blocking solution (ODYSSEY Blocking Buffer; LI-COR Biosciences) was added to each well, and left to stand at room temperature for one hour. The supernatant was removed by centrifugation, and 10 μL of a blocking solution prepared by diluting ERK (Thr 202/Tyr 204) of a phosphorylation antibody (Cell Signaling Technology, Inc.) as a primary antibody to be ½, 500 amount with respect to a stock solution was added to each well and was left to stand at 4° C. for overnight.
The next day, a reaction liquid is removed by centrifuging the plate, 20 μL of 0.05% Tween-20-containing PBS (Thermo Scientific; 20×PBS Tween-20 diluted 20-fold with ion exchanged water) was added to each well, and each well was washed by removing the supernatant by centrifugation. Washing was performed three times in total. After washing, 10 μL of a blocking solution prepared by diluting IRDye 800CW Goat anti-Rabbit IgG (LI-COR Biosciences) as a secondary antibody to be 1/1,000 amount with respect to a stock solution was added to each well and was left to stand at room temperature for one hour. The reaction liquid was removed by centrifuging the plate, and each well was washed three times with 0.05% Tween-20-containing PBS in the same manner as after primary antibody reaction. The centrifugation after the third wash was 171×g for 17 seconds. After removal of the cleaning solution, the plate was left to air dry at room temperature for three hours or more and the fluorescent signal at 800 nm was measured by Aerius (LI-COR Biosciences).
When a signal value at the time of adding DMSO was set as 0% inhibition, and a signal value at the time of adding 1 μM of Trametinib was set as 100% inhibition, a value of 50% inhibition (IC50) was calculated through Sigmoid-Emax model nonlinear regression analysis.

[2] = biological target: T1, KRAS G12C/SOS/c-Raf complex (Homo sapiens, UniProt P01116, G12C); assay: KRAS G12C/SOS/c-Raf complex formation inhibitory action (TR-FRET); assay type: biochemical; conditions: one hour at room temperature, read-out: IC50 (KRAS G12C/SOS/c-Raf complex formation inhibition)
T1 construct: Biotinylated AviTag-KRAS G12C (amino acid region 1-185, GDP)
T1 sequence (P01116 1-185 isoform P01116-2 G12C, one chain of several): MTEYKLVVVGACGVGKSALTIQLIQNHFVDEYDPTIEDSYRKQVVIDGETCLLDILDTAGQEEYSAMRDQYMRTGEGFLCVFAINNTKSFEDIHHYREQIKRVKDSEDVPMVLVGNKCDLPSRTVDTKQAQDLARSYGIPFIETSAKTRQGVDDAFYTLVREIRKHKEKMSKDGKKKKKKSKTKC
Procedure: Evaluation of KRAS G12C/SOS/c-Raf Complex Formation Inhibitory Action
Human Recombinant KRAS G12C, SOS, and c-Raf protein were used, and with respect to the complex formation of these proteins, an inhibitory action of the test compound was examined through a time-resolved fluorescence resonance energy transfer (TR-FRET) method.
Biotinylated AviTag-KRAS G12C (amino acid region 1-185, GDP) (2.5 μL; 400 nM) dissolved in assay buffer (50 mM HEPES, 150 mM NaCl, 5 mM MgCl2, 0.05% Tween 20, pH 7.4) and test compound were added in a volume of 2.5 μL from 4,000 nM to 4 nM were added to 384 well plate (Corning Inc). Son of Sevenless (SOS) (amino acid region 564-1049, 2.5 μL; 1.3 μM) and c-Raf (amino acid region 51-131) GST containing GTP (Sigma-Aldrich Co. LLC) (2.5 μL; 130 nM and 4 μM of each) were added to the above mixture, and the resultant was left to stand for one hour at room temperature. Thereafter, a mixed solution (10 μL) of LANCE Ulight-anti-GST (120 nM, PerkinElmer. Co., Ltd) and LANCE Eu-W1024 labeled Streptoavidin (100 ng/mL, PerkinElmer. Co., Ltd) was added, and a fluorescence intensity on the condition of wavelength of 620 nm and 665 nm was measured by using EnVision 2103 Multilabel Reader (PerkinElmer Co., Ltd.) under the condition of excitation wavelength of 337 nm. […] In Tables, Ex represents Example numbers described later. In addition, in Tables, Compound C represents a test compound of Example I-59 disclosed in Pamphlet of International Publication No. WO 2016/164675, and the structures of Reference Example 1 and Reference Example 2 are indicated in Table 168 described below (the same shall apply hereinafter).

[3] = NCI-H1373 spheroid, six days, CellTiter Glo
[4] = NCI-H1373 cells, cultured for 2 hours, 100% = 1 μM Trametinib

| IC50 (NCI-H1373 cells; [3]) [nM] | IC50 [1, 4] [nM] | IC50 [2] [nM] | SMILES | IC50 (NCI-H1373 cells) [nM] | IC50 [1] [nM] |
| --- | --- | --- | --- | --- | --- |
| 51 | 16 | 108 | C=CC(=O)N1CC2(CCN(c3nc(OC4CCN(CCCOC(F)(F)F)CC4)nc4c(OCC(F)(F)F)c(-c5c(C)ccc6[nH]ncc56)c(C=C)cc34)CC2)C1 [Example 83] |  |  |
| 8.1 | 5.5 | 48 | C=CC(=O)N1CC2(CCN(c3nc(OC4CCN(CC5CC5)CC4)nc4c(OCC(F)(F)F)c(-c5c(C)ccc6[nH]ncc56)c(C=C)cc34)CC2)C1 [Example 46] |  |  |
| 14 | 8.8 | 37 | C=CC(=O)N1CC2(CCN(c3nc(OC4CCN(CCOC)CC4)nc4c(OCC(F)(F)F)c(-c5c(C)ccc6cn[nH]c56)c(C=C)cc34)CC2)C1 [Example 62] |  |  |
| 18 | 11 | 43 | C=CC(=O)N1CC2(CCN(c3nc(OC4CCN(CCN(CC)CC)CC4)nc4c(OCC(F)(F)F)c(-c5c(C)ccc6[nH]ncc56)c(C=C)cc34)CC2)C1 [Example 67] |  |  |
| 6.8 | 7.2 | 60 | C=CC(=O)N1CC2(CCN(c3nc(OC4CCN(CCC#N)CC4)nc4c(OCC)c(-c5c(C)ccc6[nH]ncc56)c(C5CC5)cc34)CC2)C1 [Example 54] |  |  |
| 12 | 10 | 38 | C=CC(=O)N1CC2(CCN(c3nc(OC4CCN(CC)CC4)nc4c(OC5CC(F)(F)C5)c(-c5c(C)ccc6[nH]ncc56)c(C=C)cc34)CC2)C1 [Example 11] |  |  |
| 5.9 | 4.9 | 39 | C=CC(=O)N1CC2(CCN(c3nc(OC[C@@H]4CCCN4C)nc4c(OCC)c(-c5c(C)ccc6[nH]ncc56)c(C5CC5)cc34)CC2)C1 [Example 23] |  |  |
| 21 | 15 | 50 | C=CC(=O)N1CC2(CCN(c3nc(OC4CCN(C)CC4)nc4c(OCC(C)C)c(-c5c(C)ccc6[nH]ncc56)c(C=C)cc34)CC2)C1 [Example 74] |  |  |
| 15 | 5.9 | 54 | C=CC(=O)N1CC2(CCN(c3nc(OC4CCN(C)CC4C)nc4c(OCC(F)(F)F)c(-c5c(C)ccc6[nH]ncc56)c(C=C)cc34)CC2)C1 (stereo not drawn) [Example 48] |  |  |
| 53 | 22 | 55 | C=CC(=O)N1CC2(CCN(c3nc(OC4CCN(C(C)=O)CC4)nc4c(OCC(F)(F)F)c(-c5c(C)ccc6[nH]ncc56)c(C=C)cc34)CC2)C1 [Example 90] |  |  |
| 5.5 | 3.8 | 55 | C=CC(=O)N1CC2(CCN(c3nc(OC4CCN(CC)CC4)nc4c(OCC(F)(F)F)c(-c5c(C)ccc6[nH]ncc56)c(C=C)cc34)CC2)C1 [Example 9] |  |  |
| 43 | 15 | 51 | C=CC(=O)N1CC2(CCN(c3nc(OC4CCS(=O)(=O)CC4)nc4c(OCC(F)(F)F)c(-c5c(C)ccc6[nH]ncc56)c(C=C)cc34)CC2)C1 [Example 75] |  |  |
| 75 | 16 | 166 | C=CC(=O)N1CC2(CCN(c3nc(OC4CCN(CC(F)(F)F)CC4)nc4c(OCC(F)(F)F)c(-c5c(C)ccc6[nH]ncc56)c(C=C)cc34)CC2)C1 [Example 80] |  |  |
| 15 | 4.6 | 39 | C=CC(=O)N1CC2(CCN(c3nc(OC4CCN(CC)CC4)nc4c(OCC(F)F)c(-c5c(C)ccc6[nH]ncc56)c(C5CC5)cc34)CC2)C1 [Example 22] |  |  |
| 10 | 5.7 | 34 | C=CC(=O)N1CC2(CCN(c3nc(OC4CCN(CC)CC4)nc4c(OCC(F)F)c(-c5c(C)ccc6[nH]ncc56)c(C=C)cc34)CC2)C1 [Example 10] |  |  |
| 17 | 8.4 | 57 | C=CC(=O)N1CC2(CCN(c3nc(OC4CCN(C)CC4)nc4c(OCc5ccc(C)cc5)c(-c5c(C)ccc6[nH]ncc56)c(C=C)cc34)CC2)C1 [Example 58] |  |  |
| 17 | 5.6 | 43 | C=CC(=O)N1CC2(CCN(c3nc(OC4CCN(CCOC(C)C)CC4)nc4c(OCC(F)(F)F)c(-c5c(C)ccc6[nH]ncc56)c(C=C)cc34)CC2)C1 [Example 47] |  |  |
| 6.5 | 3.3 | 40 | C=CC(=O)N1CC2(CCN(c3nc(OC4CCN(CCCOC)CC4)nc4c(OCC(F)(F)F)c(-c5c(C)ccc6[nH]ncc56)c(C=C)cc34)CC2)C1 [Example 27] |  |  |
| 40 | 19 | 53 | C=CC(=O)N1CC2(CCN(c3nc(N4CCN(C)C(CC)C4)nc4c(OCC(F)(F)F)c(-c5c(C)ccc6[nH]ncc56)c(C=C)cc34)CC2)C1 (stereo not drawn) [Example 89] |  |  |

| SMILES | IC50 (NCI-H1373 cells; [3]) [nM] | IC50 [1, 4] [nM] | IC50 [2] [nM] | IC50 (NCI-H1373 cells) [nM] | IC50 [1] [nM] |
| --- | --- | --- | --- | --- | --- |
| C=CC(=O)N1CC2(CCN(c3nc(OC4CCN(CCN5CCOCC5)CC4)nc4c(OCC(F)(F)F)c(-c5c(C)ccc6[nH]ncc56)c(C5CC5)cc34)CC2)C1 [Example 45] |  |  | 38 | 7.3 | 5.2 |
